Results published in BindingDB's records for doi:10.1016/j.bmcl.2010.06.050 (Universit&#224, 2010).

What was measured:
[1] = biological target: Monoglyceride lipase MGLL (Mus musculus) (UniProt O35678); assay: Inhibition of mouse brain MAGL
[2] = biological target: T1, Fatty-acid amide hydrolase 1 (Mus musculus, UniProt O08914); assay: Inhibition of mouse brain FAAH assessed as conversion of [3H-ethanolamine]AEA to [3H]ethanolamine by scintillation counting
T1 sequence (O08914 whole entry): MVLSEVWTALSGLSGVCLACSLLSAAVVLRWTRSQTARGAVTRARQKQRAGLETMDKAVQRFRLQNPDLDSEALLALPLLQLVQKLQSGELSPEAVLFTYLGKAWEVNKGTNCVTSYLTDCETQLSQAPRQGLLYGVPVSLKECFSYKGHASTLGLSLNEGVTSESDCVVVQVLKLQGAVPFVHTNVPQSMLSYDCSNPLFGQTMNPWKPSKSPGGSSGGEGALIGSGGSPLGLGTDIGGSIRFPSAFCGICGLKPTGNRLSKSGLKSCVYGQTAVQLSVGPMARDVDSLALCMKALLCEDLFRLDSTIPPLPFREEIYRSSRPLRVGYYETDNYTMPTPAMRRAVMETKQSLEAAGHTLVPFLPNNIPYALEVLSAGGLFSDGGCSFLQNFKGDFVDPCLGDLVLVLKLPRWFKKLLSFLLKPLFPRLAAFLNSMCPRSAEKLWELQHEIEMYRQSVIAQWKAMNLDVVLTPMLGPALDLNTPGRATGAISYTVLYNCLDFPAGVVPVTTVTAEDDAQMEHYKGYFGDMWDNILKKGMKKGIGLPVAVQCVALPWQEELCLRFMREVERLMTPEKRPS

Chain of Monoglyceride lipase MGLL (Mus musculus) (O35678 whole entry, looked up): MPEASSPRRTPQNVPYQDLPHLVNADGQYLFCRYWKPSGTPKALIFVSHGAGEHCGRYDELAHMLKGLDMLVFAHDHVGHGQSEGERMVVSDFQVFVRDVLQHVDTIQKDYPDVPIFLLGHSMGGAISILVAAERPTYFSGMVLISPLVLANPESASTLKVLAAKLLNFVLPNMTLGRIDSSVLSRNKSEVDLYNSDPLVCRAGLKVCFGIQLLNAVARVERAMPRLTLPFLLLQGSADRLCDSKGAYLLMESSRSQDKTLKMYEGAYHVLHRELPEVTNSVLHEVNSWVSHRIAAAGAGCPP

Row | IC50 [1] [µM] | IC50 [2] [µM] | SMILES
1 | > 10 |  | CC(=NOC(=O)Nc1ccccc1)c1cccc(-c2cccs2)c1 [1-(3-Thiophen-2-yl-phenyl)-ethanone, O-(phenylaminocarbonyl)oxime]
2 |  | > 50 | O=C(Nc1ccccc1)ON=C1CCC(c2ccccc2)CC1 (configuration not stated) [4-Phenyl-cyclohexanone, O-(phenylaminocarbonyl)oxime]
